Several values for one entry are separate records, joined by “and”; a condition that tells them apart may be missing. Equal entries are not always repeated.
Assay: Gemcitabine plasma pharmacokinetics in Slc28a1+/+ and Slc28a1-/- mice
Conditions: Gem-TP in plasma, single intravenous dose of gemcitabine 50mg/kg, individual mice

Nc1ccn([C@@H]2O[C@H](COP(=O)(O)OP(=O)(O)OP(=O)(O)O)[C@@H](O)C2(F)F)c(=O)n1 [Gem-TP]
AUCINF_D_obs (KO (Slc28a1-/-) mice): 509.381 kg·ng·min/mL/mg and 272.158 kg·ng·min/mL/mg and 1500.18 kg·ng·min/mL/mg and 597.23 kg·ng·min/mL/mg and 1529.97 kg·ng·min/mL/mg and 1749.53 kg·ng·min/mL/mg
AUCINF_D_pred (KO (Slc28a1-/-) mice): 476.443 kg·ng·min/mL/mg and 251.621 kg·ng·min/mL/mg and 1436.01 kg·ng·min/mL/mg and 561.179 kg·ng·min/mL/mg and 1459.25 kg·ng·min/mL/mg and 1679.11 kg·ng·min/mL/mg
AUCINF_obs (KO (Slc28a1-/-) mice): 25469 ng·min/mL and 13607.9 ng·min/mL and 75008.8 ng·min/mL and 29861.5 ng·min/mL and 76498.5 ng·min/mL and 87476.7 ng·min/mL
AUCINF_pred (KO (Slc28a1-/-) mice): 23822.1 ng·min/mL and 12581.1 ng·min/mL and 71800.6 ng·min/mL and 28058.9 ng·min/mL and 72962.4 ng·min/mL and 83955.6 ng·min/mL
AUC_%Back_Ext_obs (KO (Slc28a1-/-) mice): 0.5829% and 5.828% and 0.4312% and 2.002% and 0.5682% and 0.06111%
AUC_%Back_Ext_pred (KO (Slc28a1-/-) mice): 0.6232% and 6.304% and 0.4505% and 2.131% and 0.5957% and 0.06367%
AUC_%Extrap_obs (KO (Slc28a1-/-) mice): 67.4874% and 53.7747% and 79.3116% and 67.9349% and 78.2847% and 81.1285%
AUC_%Extrap_pred (KO (Slc28a1-/-) mice): 65.2397% and 50.0019% and 78.3872% and 65.875% and 77.2323% and 80.3371%
AUCall (KO (Slc28a1-/-) mice): 8280.65 ng·min/mL and 6290.29 ng·min/mL and 15518.1 ng·min/mL and 9575.11 ng·min/mL and 16611.9 ng·min/mL and 16508.1 ng·min/mL
AUClast (KO (Slc28a1-/-) mice): 8280.65 ng·min/mL and 6290.29 ng·min/mL and 15518.1 ng·min/mL and 9575.11 ng·min/mL and 16611.9 ng·min/mL and 16508.1 ng·min/mL
AUClast_D (KO (Slc28a1-/-) mice): 165.613 kg·ng·min/mL/mg and 125.806 kg·ng·min/mL/mg and 310.363 kg·ng·min/mL/mg and 191.502 kg·ng·min/mL/mg and 332.237 kg·ng·min/mL/mg and 330.163 kg·ng·min/mL/mg
AUMCINF_obs (KO (Slc28a1-/-) mice): 14271006 min*min*ng/mL and 5009676 min*min*ng/mL and 73111057 min*min*ng/mL and 17625971 min*min*ng/mL and 70582595 min*min*ng/mL and 93013834 min*min*ng/mL
AUMCINF_pred (KO (Slc28a1-/-) mice): 12992303 min*min*ng/mL and 4388328 min*min*ng/mL and 69264936 min*min*ng/mL and 16149841 min*min*ng/mL and 66527378 min*min*ng/mL and 88496254 min*min*ng/mL
AUMC_%Extrap_obs (KO (Slc28a1-/-) mice): 93.5147% and 88.3871% and 97.5522% and 94.251% and 97.3007% and 97.8918%
AUMC_%Extrap_pred (KO (Slc28a1-/-) mice): 92.8764% and 86.7428% and 97.4162% and 93.7255% and 97.1361% and 97.7841%
AUMClast (KO (Slc28a1-/-) mice): 925521 min*min*ng/mL and 581771 min*min*ng/mL and 1789646 min*min*ng/mL and 1013321 min*min*ng/mL and 1905271 min*min*ng/mL and 1960946 min*min*ng/mL
Cl_pred (KO (Slc28a1-/-) mice): 2098.89 mL/min/kg and 3974.23 mL/min/kg and 696.373 mL/min/kg and 1781.96 mL/min/kg and 685.285 mL/min/kg and 595.553 mL/min/kg
Clast (KO (Slc28a1-/-) mice): 32.0426 ng/mL and 20.0426 ng/mL and 62.0426 ng/mL and 35.0426 ng/mL and 66.0426 ng/mL and 68.0426 ng/mL
Clast_pred (KO (Slc28a1-/-) mice): 28.9724 ng/mL and 17.2301 ng/mL and 58.6968 ng/mL and 31.9288 ng/mL and 62.1429 ng/mL and 64.6666 ng/mL
Cmax (KO (Slc28a1-/-) mice): 49.2745 ng/mL and 91.6911 ng/mL and 79.2745 ng/mL and 88.6911 ng/mL and 85.6911 ng/mL and 85.2745 ng/mL
Cmax_D (KO (Slc28a1-/-) mice): 0.9855 kg·ng/mL/mg and 1.834 kg·ng/mL/mg and 1.585 kg·ng/mL/mg and 1.774 kg·ng/mL/mg and 1.714 kg·ng/mL/mg and 1.705 kg·ng/mL/mg
HL_Lambda_z (KO (Slc28a1-/-) mice): 371.821 min and 253.07 min and 664.637 min and 401.268 min and 628.538 min and 722.954 min
Lambda_z (KO (Slc28a1-/-) mice): 0.001864 min⁻¹ and 0.002739 min⁻¹ and 0.001043 min⁻¹ and 0.001727 min⁻¹ and 0.001103 min⁻¹ and 0.0009588 min⁻¹
MRTINF_obs (KO (Slc28a1-/-) mice): 9.33878 h and 6.13575 h and 16.24 h and 9.83763 h and 15.3778 h and 17.722 h
MRTINF_pred (KO (Slc28a1-/-) mice): 9.0898 h and 5.81342 h and 16.0781 h and 9.59282 h and 15.1967 h and 17.568 h
MRTlast (KO (Slc28a1-/-) mice): 1.86282 h and 1.54145 h and 1.9221 h and 1.76382 h and 1.91155 h and 1.97978 h
Tlast (KO (Slc28a1-/-) mice): 240 min
Tmax (KO (Slc28a1-/-) mice): 0.167 h and 0.083 h
Vss_obs (KO (Slc28a1-/-) mice): 1100.017 L/kg and 1352.688 L/kg and 649.724 L/kg and 988.326 L/kg and 603.062 L/kg and 607.76 L/kg
Vss_pred (KO (Slc28a1-/-) mice): 1144.708 L/kg and 1386.23 L/kg and 671.779 L/kg and 1025.643 L/kg and 624.846 L/kg and 627.762 L/kg
Vz_obs (KO (Slc28a1-/-) mice): 1053.09 L/kg and 1341.512 L/kg and 639.17 L/kg and 969.32 L/kg and 592.684 L/kg and 596.16 L/kg
Vz_pred (KO (Slc28a1-/-) mice): 1125.894 L/kg and 1451.004 L/kg and 667.729 L/kg and 1031.591 L/kg and 621.408 L/kg and 621.163 L/kg
AUCINF_D_obs (WT (Slc28a1+/+) mice): 627.983 kg·ng·min/mL/mg and 293.244 kg·ng·min/mL/mg and 2095.28 kg·ng·min/mL/mg and 746.583 kg·ng·min/mL/mg and 2357.3 kg·ng·min/mL/mg and 2481.13 kg·ng·min/mL/mg
AUCINF_D_pred (WT (Slc28a1+/+) mice): 611.177 kg·ng·min/mL/mg and 283.996 kg·ng·min/mL/mg and 2059.29 kg·ng·min/mL/mg and 727.87 kg·ng·min/mL/mg and 2318.74 kg·ng·min/mL/mg and 2441.28 kg·ng·min/mL/mg
AUCINF_obs (WT (Slc28a1+/+) mice): 31399.2 ng·min/mL and 14662.2 ng·min/mL and 104764 ng·min/mL and 37329.2 ng·min/mL and 117865 ng·min/mL and 124056 ng·min/mL
AUCINF_pred (WT (Slc28a1+/+) mice): 30558.9 ng·min/mL and 14199.8 ng·min/mL and 102964 ng·min/mL and 36393.5 ng·min/mL and 115937 ng·min/mL and 122064 ng·min/mL
AUC_%Back_Ext_obs (WT (Slc28a1+/+) mice): 0.6002% and 4.658% and 0.3469% and 1.514% and 0.3975% and 0.07533%
AUC_%Back_Ext_pred (WT (Slc28a1+/+) mice): 0.6167% and 4.81% and 0.353% and 1.5528% and 0.4041% and 0.07656%
AUC_%Extrap_obs (WT (Slc28a1+/+) mice): 74.9814% and 61.0207% and 85.5932% and 75.6831% and 86.2719% and 87.0356%
AUC_%Extrap_pred (WT (Slc28a1+/+) mice): 74.2934% and 59.7514% and 85.3414% and 75.0579% and 86.0436% and 86.824%
AUCall (WT (Slc28a1+/+) mice): 7855.65 ng·min/mL and 5715.22 ng·min/mL and 15093.1 ng·min/mL and 9077.31 ng·min/mL and 16180.6 ng·min/mL and 16083.1 ng·min/mL
AUClast (WT (Slc28a1+/+) mice): 7855.65 ng·min/mL and 5715.22 ng·min/mL and 15093.1 ng·min/mL and 9077.31 ng·min/mL and 16180.6 ng·min/mL and 16083.1 ng·min/mL
AUClast_D (WT (Slc28a1+/+) mice): 157.113 kg·ng·min/mL/mg and 114.304 kg·ng·min/mL/mg and 301.863 kg·ng·min/mL/mg and 181.546 kg·ng·min/mL/mg and 323.613 kg·ng·min/mL/mg and 321.663 kg·ng·min/mL/mg
AUMCINF_obs (WT (Slc28a1+/+) mice): 25618307 min*min*ng/mL and 7382666 min*min*ng/mL and 159455048 min*min*ng/mL and 32660009 min*min*ng/mL and 190278277 min*min*ng/mL and 207071348 min*min*ng/mL
AUMCINF_pred (WT (Slc28a1+/+) mice): 24735428 min*min*ng/mL and 7028934 min*min*ng/mL and 156289942 min*min*ng/mL and 31610468 min*min*ng/mL and 186705642 min*min*ng/mL and 203285848 min*min*ng/mL
AUMC_%Extrap_obs (WT (Slc28a1+/+) mice): 96.5565% and 92.707% and 98.9048% and 97.0301% and 99.0215% and 99.0739%
AUMC_%Extrap_pred (WT (Slc28a1+/+) mice): 96.4336% and 92.3399% and 98.8827% and 96.9315% and 99.0028% and 99.0567%
AUMClast (WT (Slc28a1+/+) mice): 882171 min*min*ng/mL and 538421 min*min*ng/mL and 1746296 min*min*ng/mL and 969971 min*min*ng/mL and 1861921 min*min*ng/mL and 1917596 min*min*ng/mL
Cl_pred (WT (Slc28a1+/+) mice): 1636.19 mL/min/kg and 3521.18 mL/min/kg and 485.605 mL/min/kg and 1373.87 mL/min/kg and 431.268 mL/min/kg and 409.621 mL/min/kg
Clast (WT (Slc28a1+/+) mice): 29.0426 ng/mL and 17.0426 ng/mL and 59.0426 ng/mL and 32.0426 ng/mL and 63.0426 ng/mL and 65.0426 ng/mL
Clast_pred (WT (Slc28a1+/+) mice): 28.006 ng/mL and 16.1618 ng/mL and 57.8576 ng/mL and 30.9814 ng/mL and 61.8472 ng/mL and 63.8424 ng/mL
Cmax (WT (Slc28a1+/+) mice): 69.2745 ng/mL and 99.6911 ng/mL and 99.2745 ng/mL and 96.6911 ng/mL and 103.275 ng/mL and 105.275 ng/mL
Cmax_D (WT (Slc28a1+/+) mice): 1.385 kg·ng/mL/mg and 1.994 kg·ng/mL/mg and 1.985 kg·ng/mL/mg and 1.934 kg·ng/mL/mg and 2.065 kg·ng/mL/mg and 2.105 kg·ng/mL/mg
HL_Lambda_z (WT (Slc28a1+/+) mice): 561.904 min and 363.887 min and 1052.72 min and 611.146 min and 1118.01 min and 1150.65 min
Lambda_z (WT (Slc28a1+/+) mice): 0.001234 min⁻¹ and 0.001905 min⁻¹ and 0.0006584 min⁻¹ and 0.001134 min⁻¹ and 0.00062 min⁻¹ and 0.0006024 min⁻¹
MRTINF_obs (WT (Slc28a1+/+) mice): 13.5982 h and 8.39195 h and 25.3673 h and 14.582 h and 26.9062 h and 27.8195 h
MRTINF_pred (WT (Slc28a1+/+) mice): 13.4906 h and 8.25005 h and 25.298 h and 14.4762 h and 26.84 h and 27.757 h
MRTlast (WT (Slc28a1+/+) mice): 1.87163 h and 1.57014 h and 1.92835 h and 1.78095 h and 1.91785 h and 1.9872 h
Tlast (WT (Slc28a1+/+) mice): 240 min
Tmax (WT (Slc28a1+/+) mice): 0.167 h and 0.083 h
Vss_obs (WT (Slc28a1+/+) mice): 1299.224 L/kg and 1717.058 L/kg and 726.413 L/kg and 1171.898 L/kg and 684.839 L/kg and 672.746 L/kg
Vss_pred (WT (Slc28a1+/+) mice): 1324.388 L/kg and 1742.993 L/kg and 737.1 L/kg and 1193.31 L/kg and 694.517 L/kg and 682.183 L/kg
Vz_obs (WT (Slc28a1+/+) mice): 1290.887 L/kg and 1790.244 L/kg and 724.843 L/kg and 1180.977 L/kg and 684.235 L/kg and 669.067 L/kg
Vz_pred (WT (Slc28a1+/+) mice): 1326.384 L/kg and 1848.542 L/kg and 737.512 L/kg and 1211.34 L/kg and 695.614 L/kg and 679.987 L/kg
